Data from ChEMBL document CHEMBL5512598, “Current advances and development strategies of orally bioavailable PROTACs” (Eur J Med Chem, 2023).
Each block holds one compound with its values, some of them ahead of it.

Columns and labels:
[1] = Oral availability in ICR mouse at 30 mg/kg by HPLC-MS/MS analysis; format: ADME, organism-based; conditions: in vivo
[2] = AUC (0 to t) in ICR mouse at 30 mg/kg, po measured upto 24 hrs by HPLC-MS/MS analysis; format: ADME, organism-based; conditions: in vivo
[3] = molecular target: Protein cereblon/Tyrosine-protein kinase BTK (Homo sapiens, UniProt Q06187+Q96SW2, C481S); test: PROTAC activity at CRBN/BTK C481S mutant in human DLBCL cells assessed as degradation of BTK protein incubated for 4 hrs by HTRF assay; format: cell-based
[4] = Oral bioavailability in BALB/c mouse at 30 mg/kg measured for 24 hrs by UPLC-MS/MS analysis; format: ADME, organism-based; conditions: in vivo
[5] = AUC (0 to t) in BALB/c mouse at 30 mg/kg measured for 24 hrs by UPLC-MS/MS analysis; format: ADME, organism-based; conditions: in vivo
[6] = Cmax in BALB/c mouse at 30 mg/kg measured for 24 hrs by UPLC-MS/MS analysis; format: ADME, organism-based; conditions: in vivo
[7] = Tmax in BALB/c mouse at 30 mg/kg measured for 24 hrs by UPLC-MS/MS analysis; format: ADME, organism-based; conditions: in vivo
[8] = molecular target: T1, Protein cereblon/Leucine-rich repeat serine/threonine-protein kinase 2 (Homo sapiens, UniProt Q5S007+Q96SW2); test: PROTAC activity at CRBN/LRRK2 in human MOLT-4 cells assessed as induction of LRRK2 degradation at 1 uM by Western blot analysis relative to control; format: cell-based
Target sequence in this assay (Q5S007 whole entry, looked up): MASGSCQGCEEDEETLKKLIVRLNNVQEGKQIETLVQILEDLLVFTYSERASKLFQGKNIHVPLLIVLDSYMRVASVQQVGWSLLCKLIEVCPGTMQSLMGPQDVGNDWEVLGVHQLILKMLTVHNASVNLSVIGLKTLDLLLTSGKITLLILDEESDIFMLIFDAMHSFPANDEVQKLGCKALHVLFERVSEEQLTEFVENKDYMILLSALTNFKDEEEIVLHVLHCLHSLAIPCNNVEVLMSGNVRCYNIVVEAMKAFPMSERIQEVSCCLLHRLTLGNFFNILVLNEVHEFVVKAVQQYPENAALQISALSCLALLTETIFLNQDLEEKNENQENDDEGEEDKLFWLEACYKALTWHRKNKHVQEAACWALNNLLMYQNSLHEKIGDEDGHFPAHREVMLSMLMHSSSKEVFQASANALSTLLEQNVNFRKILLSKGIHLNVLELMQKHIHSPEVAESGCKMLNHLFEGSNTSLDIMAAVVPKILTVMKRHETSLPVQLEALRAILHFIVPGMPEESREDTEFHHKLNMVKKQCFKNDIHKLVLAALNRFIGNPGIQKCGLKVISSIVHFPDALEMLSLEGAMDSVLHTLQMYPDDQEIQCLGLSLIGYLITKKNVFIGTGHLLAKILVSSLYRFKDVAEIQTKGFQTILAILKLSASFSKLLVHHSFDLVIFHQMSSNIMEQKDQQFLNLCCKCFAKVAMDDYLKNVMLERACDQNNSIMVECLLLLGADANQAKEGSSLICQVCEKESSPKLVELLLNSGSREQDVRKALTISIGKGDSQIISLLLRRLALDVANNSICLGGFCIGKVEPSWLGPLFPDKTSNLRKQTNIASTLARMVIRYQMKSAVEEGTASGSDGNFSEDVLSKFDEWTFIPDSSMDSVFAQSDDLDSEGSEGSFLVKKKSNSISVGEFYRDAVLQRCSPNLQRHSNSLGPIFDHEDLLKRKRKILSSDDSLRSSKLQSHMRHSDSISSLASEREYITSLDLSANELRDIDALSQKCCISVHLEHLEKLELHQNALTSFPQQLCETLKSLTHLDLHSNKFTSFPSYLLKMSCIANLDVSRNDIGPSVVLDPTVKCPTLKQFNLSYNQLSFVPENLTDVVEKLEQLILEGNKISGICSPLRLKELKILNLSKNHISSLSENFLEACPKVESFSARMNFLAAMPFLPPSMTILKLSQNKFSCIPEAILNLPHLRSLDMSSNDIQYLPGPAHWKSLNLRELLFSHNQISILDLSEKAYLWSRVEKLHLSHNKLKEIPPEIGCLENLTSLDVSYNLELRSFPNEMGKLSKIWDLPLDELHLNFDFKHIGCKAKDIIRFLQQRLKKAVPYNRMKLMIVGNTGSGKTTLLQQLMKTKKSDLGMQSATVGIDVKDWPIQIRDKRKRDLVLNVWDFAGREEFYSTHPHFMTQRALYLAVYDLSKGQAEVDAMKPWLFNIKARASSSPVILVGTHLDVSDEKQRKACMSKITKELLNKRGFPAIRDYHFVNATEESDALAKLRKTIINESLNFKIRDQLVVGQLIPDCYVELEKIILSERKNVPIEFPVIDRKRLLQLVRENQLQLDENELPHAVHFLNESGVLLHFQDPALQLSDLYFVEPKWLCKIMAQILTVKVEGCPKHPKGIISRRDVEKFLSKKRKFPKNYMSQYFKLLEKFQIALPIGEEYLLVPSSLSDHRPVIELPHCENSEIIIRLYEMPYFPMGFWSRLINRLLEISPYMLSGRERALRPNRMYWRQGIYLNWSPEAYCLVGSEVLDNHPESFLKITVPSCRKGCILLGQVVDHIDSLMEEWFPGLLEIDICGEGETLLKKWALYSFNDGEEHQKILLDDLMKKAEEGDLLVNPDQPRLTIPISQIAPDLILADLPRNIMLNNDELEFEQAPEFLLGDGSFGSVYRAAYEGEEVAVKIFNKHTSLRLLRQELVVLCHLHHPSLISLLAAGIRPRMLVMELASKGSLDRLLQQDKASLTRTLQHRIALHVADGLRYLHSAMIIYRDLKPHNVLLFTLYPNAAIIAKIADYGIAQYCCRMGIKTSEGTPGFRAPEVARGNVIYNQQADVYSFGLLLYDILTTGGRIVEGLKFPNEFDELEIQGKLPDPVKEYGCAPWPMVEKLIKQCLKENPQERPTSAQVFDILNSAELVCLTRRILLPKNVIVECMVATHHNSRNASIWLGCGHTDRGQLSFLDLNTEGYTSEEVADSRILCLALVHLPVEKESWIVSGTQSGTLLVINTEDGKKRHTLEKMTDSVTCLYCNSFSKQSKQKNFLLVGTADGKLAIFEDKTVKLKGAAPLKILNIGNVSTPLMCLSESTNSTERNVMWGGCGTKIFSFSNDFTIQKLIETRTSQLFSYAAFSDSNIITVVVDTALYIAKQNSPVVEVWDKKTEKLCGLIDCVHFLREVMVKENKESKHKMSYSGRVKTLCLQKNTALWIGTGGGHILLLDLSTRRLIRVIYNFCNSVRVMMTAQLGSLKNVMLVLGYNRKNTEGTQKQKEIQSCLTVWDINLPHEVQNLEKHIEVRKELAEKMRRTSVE
Target sequence in this assay (Q96SW2 whole entry, looked up): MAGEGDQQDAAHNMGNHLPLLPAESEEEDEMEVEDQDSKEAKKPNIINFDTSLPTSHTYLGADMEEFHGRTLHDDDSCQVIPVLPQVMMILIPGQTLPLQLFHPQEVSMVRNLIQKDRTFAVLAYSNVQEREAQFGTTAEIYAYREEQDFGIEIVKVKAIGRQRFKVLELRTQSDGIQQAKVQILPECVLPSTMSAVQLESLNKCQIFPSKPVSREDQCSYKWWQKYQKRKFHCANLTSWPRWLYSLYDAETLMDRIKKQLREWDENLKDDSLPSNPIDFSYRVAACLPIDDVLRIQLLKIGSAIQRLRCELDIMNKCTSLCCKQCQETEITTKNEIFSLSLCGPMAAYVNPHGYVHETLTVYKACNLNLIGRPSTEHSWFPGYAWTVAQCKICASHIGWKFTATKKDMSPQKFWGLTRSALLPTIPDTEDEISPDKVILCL

[9] = Oral bioavailability in rat at 5 mg/kg by LC-MS/MS analysis; format: ADME, organism-based; conditions: in vivo
[10] = Oral bioavailability in mouse at 5 mg/kg by LC-MS/MS analysis; format: ADME, organism-based; conditions: in vivo
[11] = Half life in C57BL/6 mouse at 30 mg/kg, po by LC-MS/MS analysis; format: ADME, organism-based; conditions: in vivo
[12] = AUC (0 to t) in C57BL/6 mouse at 30 mg/kg, po by LC-MS/MS analysis; format: ADME, organism-based; conditions: in vivo
[13] = Oral bioavailability in C57BL/6 mouse at 30 mg/kg by LC-MS/MS analysis; format: ADME, organism-based; conditions: in vivo
[14] = Tmax in C57BL/6 mouse at 30 mg/kg, po by LC-MS/MS analysis; format: ADME, organism-based; conditions: in vivo
[15] = Cmax in C57BL/6 mouse at 30 mg/kg, po by LC-MS/MS analysis; format: ADME, organism-based; conditions: in vivo
[16] = molecular target: T1, Protein cereblon/Leucine-rich repeat serine/threonine-protein kinase 2; test: PROTAC activity at CRBN/LRRK2 in human MOLT-4 cells assessed as induction of LRRK2 degradation incubated for 48 hrs by Western blot analysis; format: cell-based
Target sequence in this assay (Q5S007 whole entry): as the sequence (Q5S007 whole entry, looked up) above
Target sequence in this assay (Q96SW2 whole entry): as the sequence (Q96SW2 whole entry, looked up) above

[17] = Oral bioavailability in Sprague-Dawley rat at 40 mg/kg measured up to 24 hrs by LC-MS analysis; format: ADME, organism-based; conditions: in vivo
[18] = Half life in Sprague-Dawley rat at 40 mg/kg, po measured after 24 hrs by LC-MS/MS analysis; format: ADME, organism-based; conditions: in vivo
[19] = AUC (0 to t) in Sprague-Dawley rat at 40 mg/kg, IG measured up to 24 hrs by LC-MS/MS analysis; format: ADME, organism-based; conditions: in vivo, po
[20] = Tmax in Sprague-Dawley rat at 40 mg/kg, IG measured up to 24 hrs by LC-MS/MS analysis; format: ADME, organism-based; conditions: in vivo, po
[21] = Cmax in Sprague-Dawley rat at 40 mg/kg, po measured after 24 hrs by LC-MS/MS analysis; format: ADME, organism-based; conditions: in vivo
[22] = Half life in mouse at 30 mg/kg, po measured upto 24 hrs by LC-MS/MS analysis; format: ADME, organism-based; conditions: in vivo
[23] = AUC in mouse at 30 mg/kg, po; format: ADME, organism-based; conditions: in vivo

Chain of Protein cereblon/Tyrosine-protein kinase BTK (Q06187 2-659 C481S limits assumed, stated change not applied): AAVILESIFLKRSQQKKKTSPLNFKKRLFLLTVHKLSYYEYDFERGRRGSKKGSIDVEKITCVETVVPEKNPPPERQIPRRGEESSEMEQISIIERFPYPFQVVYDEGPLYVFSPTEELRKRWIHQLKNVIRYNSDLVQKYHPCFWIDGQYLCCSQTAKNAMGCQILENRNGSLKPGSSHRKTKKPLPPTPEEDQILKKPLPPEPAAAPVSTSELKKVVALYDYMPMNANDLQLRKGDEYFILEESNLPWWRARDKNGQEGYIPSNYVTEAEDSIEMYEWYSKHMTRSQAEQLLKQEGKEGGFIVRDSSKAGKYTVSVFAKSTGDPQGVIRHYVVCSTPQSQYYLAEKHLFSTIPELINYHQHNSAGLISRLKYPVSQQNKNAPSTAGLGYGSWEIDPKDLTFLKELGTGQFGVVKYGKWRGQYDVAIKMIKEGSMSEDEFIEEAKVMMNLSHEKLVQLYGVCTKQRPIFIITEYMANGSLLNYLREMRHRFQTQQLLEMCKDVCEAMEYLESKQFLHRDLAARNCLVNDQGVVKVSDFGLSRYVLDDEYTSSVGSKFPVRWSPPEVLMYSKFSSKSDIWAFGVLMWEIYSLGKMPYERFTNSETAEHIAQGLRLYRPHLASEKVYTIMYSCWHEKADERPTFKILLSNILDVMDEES
Chain of Protein cereblon/Tyrosine-protein kinase BTK (Q96SW2 whole entry, stated change not applied): as the sequence (Q96SW2 whole entry, looked up) above

Compound: Cc1ncsc1-c1ccc([C@H](CC[C@H](C)CCN2CCC(c3ccc4c(c3)n(C3CCCC3)c3nc(=O)c5c(Br)cccc5n43)CC2)NC(=O)[C@@H]2C[C@@H](O)CN2C(=O)[C@@H](NC(=O)C2(F)CC2)C(C)(C)C)cc1
- bioavailability [1]: 22%
- AUC(0-t) at 24 h [2]: 50000 ng·h/mL

Compound: CN1CCN([C@@H]2CCCN(c3cnc(C(N)=O)c(Nc4ccc(C5CCN(CC6CCN(c7ccc(C(=O)N[C@H]8CCC(=O)NC8=O)nc7)CC6)CC5)cc4)n3)C2)C1=O [NX-5948]
- DC50 [3]: 0.32 nM

Compound: Cc1ncsc1-c1ccc(CNC(=O)[C@@H]2C[C@@H](O)CN2C(=O)[C@@H](NC(=O)COCCCCOc2ccc(C3CCN(C4=Nn5c(nnc5C(F)(F)F)CC4)CC3)cc2)C(C)(C)C)cc1
- bioavailability [4]: 23%
- AUC(0-t) at 24 h [5]: 18000 ng·h/mL
- Cmax [6]: 7060 ng/mL
- Tmax [7]: 1.67 h

Compound: C[C@@H]1C=C2C=C[C@@H](C)[C@@H](CC[C@@H]3C[C@@H](O)CC(=O)O3)[C@@H]2[C@H](OC(=O)NCCOCCOCCNc2cccc3c2C(=O)N(C2CCC(=O)NC2=O)C3=O)C1 (some centres undefined)
- Emax [8]: 44%

Compound: Cc1ncsc1-c1ccc(CNC(=O)[C@@H]2C[C@@H](O)CN2C(=O)[C@@H](NC(=O)CCCCCCCCCCNC(=O)OC2C[C@@H](C)C=C3C=C[C@H](C)[C@H](CC[C@@H](O)C[C@H](O)CC(=O)O)[C@H]32)C(C)(C)C)cc1 (some centres undefined)
- DC50 [16]: 120 nM
- Emax [8]: 65%

Continued, values first:

- bioavailability [9]: 23.8%
- bioavailability [10]: 37.9%
Compound: N#Cc1ccc(O[C@H]2CC[C@H](NC(=O)c3ccc(N4CCC(CN5CCN(c6cc7c(cc6F)C(=O)N(C6CCC(=O)NC6=O)C7=O)CC5)CC4)nn3)CC2)cc1Cl (some centres undefined) [BAVDEGALUTAMIDE]

- half-life [11]: 21.9 h
- AUC(0-t) [12]: 21300 ng·h/mL
- bioavailability [13]: 15%
- Tmax [14]: 2 h
- Cmax [15]: 3620 ng/mL
Compound: CNc1nc(Nc2ccc(C(=O)N3CCN(C[C@H]4CC[C@H](CSC(C)(C)[C@H](NC(=O)C5(F)CC5)C(=O)N5C[C@H](O)C[C@H]5C(=O)NCc5ccc(-c6scnc6C)cc5)CC4)CC3)cc2OC)ncc1Cl

- bioavailability [17]: 0.7%
- half-life [18]: 15.8 h
- AUC(0-t) at 24 h [19]: 74.2 ng·h/mL
- Tmax [20]: 1.75 h
- Cmax [21]: 8.47 ng/mL
Compound: N#Cc1cccc(-c2ccc(=O)n(Cc3cccc(-c4ncc(OCC5CCN(CC(=O)N6CCN(c7ccc8c(c7)C(=O)N(C7CCC(=O)NC7=O)C8=O)CC6)CC5)cn4)c3)n2)c1 (centres undefined)

- half-life [22]: 28 h
- AUC [23]: 5720 ng·h/mL
Compound: O=C1CC[C@H](N2Cc3cc(N4CCN(CC5CCN(c6ccc([C@@H]7c8ccc(O)cc8CC[C@@H]7c7ccccc7)cc6)CC5)CC4)ccc3C2=O)C(=O)N1 [VEPDEGESTRANT]
